Test results reported in patent US20260284018A1, “DUAL INHIBITORS OF DYRK1A AND 5-HT2 FOR TREATING A BRAIN DISORDER” (THE REGENTS OF THE UNIVERSITY OF CALIFORNIA, priority 2023, published 2026).

Columns and labels:
MEK2 = molecular target: T1, MEK2 (Homo sapiens, UniProt P36507); assay: KINOMEscan scanEDGE; type: binding; conditions: read-out: Percent Control
T1 construct: purchased Eurofins DiscoverX (KINOMEscan scanEDGE service)
Procedure, shortened: (§1)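 Single-point competition binding screen at 10 μM compound across a 97-kinase panel; values are % activity relative to DMSO control, with lower numbers meaning stronger binding.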

BRAF(V600E) = molecular target: T2, BRAF(V600E) (Homo sapiens, UniProt P15056, V600E); assay: KINOMEscan scanEDGE; type: binding; conditions: read-out: Percent Control
T2 construct: purchased Eurofins DiscoverX
Procedure, shortened: as §1

FLT3 [1] = molecular target: T3, FLT3 (Homo sapiens, UniProt P36888); assay: KINOMEscan scanEDGE; type: binding; conditions: read-out: Percent Control
T3 construct: purchased Eurofins DiscoverX
Procedure, shortened: as §1

PIM1 [2] = molecular target: T4, PIM1 (Homo sapiens, UniProt P11309); assay: KINOMEscan scanEDGE; type: binding; conditions: read-out: Percent Control
T4 construct: purchased Eurofins DiscoverX (KINOMEscan scanEDGE service)
Procedure, shortened: as §1

RIOK2 = molecular target: T5, RIOK2 (Homo sapiens, UniProt Q9BVS4); assay: KINOMEscan scanEDGE; type: binding; conditions: read-out: Percent Control
T5 construct: purchased Eurofins DiscoverX KINOMEscan scanEDGE
Procedure, shortened: as §1

AURKB = molecular target: T6, AURKB (Homo sapiens, UniProt Q96GD4); assay: KINOMEscan scanEDGE; type: binding; conditions: read-out: Percent Control
T6 construct: purchased Eurofins DiscoverX
Procedure, shortened: as §1

AKT2 = molecular target: T7, AKT2 (Homo sapiens, UniProt P31751); assay: KINOMEscan scanEDGE; type: binding; conditions: read-out: Percent Control
T7 construct: purchased Eurofins DiscoverX
Procedure, shortened: as §1

KIT = molecular target: T8, KIT (Homo sapiens, UniProt P10721); assay: KINOMEscan scanEDGE; type: binding; conditions: read-out: Percent Control
T8 construct: purchased Eurofins DiscoverX
Procedure, shortened: as §1

CDK11 = molecular target: T9, CDK11 (Homo sapiens, UniProt Q9BWU1); assay: KINOMEscan scanEDGE; type: binding; conditions: read-out: Percent Control
T9 construct: purchased Eurofins DiscoverX
Procedure, shortened: as §1

CSF1R = molecular target: T10, CSF1R (Homo sapiens, UniProt P07333); assay: KINOMEscan scanEDGE; type: binding; conditions: read-out: Percent Control
T10 construct: purchased Eurofins DiscoverX
Procedure, shortened: as §1

[3] = molecular target: T11, TYK2(JH1domain-catalytic) (Homo sapiens, UniProt P29597); assay: KINOMEscan scanEDGE; type: binding; conditions: read-out: Percent Control
T11 construct: TYK2(JH1domain-catalytic); purchased Eurofins DiscoverX KINOMEscan scanEDGE
Procedure, shortened: as §1

PDGFRA = molecular target: T12, PDGFRA (Homo sapiens, UniProt P16234); assay: KINOMEscan scanEDGE; type: binding; conditions: read-out: Percent Control
T12 construct: purchased Eurofins DiscoverX (KINOMEscan scanEDGE service)
Procedure, shortened: as §1

IKK-beta = molecular target: T13, IKK-beta (Homo sapiens, UniProt O14920); conditions: 10 μM; cited from earlier work
T13 construct: purchased Eurofins DiscoverX

SRC = molecular target: T14, SRC (Homo sapiens, UniProt P12931); conditions: 10 μM; cited from earlier work
T14 construct: purchased Eurofins DiscoverX KINOMEscan scanEDGE

TRKA = molecular target: T15, TRKA (Homo sapiens, UniProt P04629); conditions: 10 μM; cited from earlier work
T15 construct: purchased Eurofins DiscoverX KINOMEscan scanEDGE

AKT1 = molecular target: T16, AKT1 (Homo sapiens, UniProt P31749); conditions: 10 μM; cited from earlier work
T16 construct: purchased Eurofins DiscoverX

ERBB4 = molecular target: T17, ERBB4 (Homo sapiens, UniProt Q15303); conditions: 10 μM; cited from earlier work
T17 construct: purchased Eurofins DiscoverX

IGF1R = molecular target: T18, IGF1R (Homo sapiens, UniProt P08069); conditions: 10 μM; cited from earlier work
T18 construct: purchased Eurofins DiscoverX

FLT3 [4] = molecular target: T3, FLT3; conditions: 10 μM; cited from earlier work
ULK2 = molecular target: T19, ULK2 (Homo sapiens, UniProt Q8IYT8); conditions: 10 μM; cited from earlier work
T19 construct: purchased Eurofins DiscoverX KINOMEscan scanEDGE

MET = molecular target: T20, MET (Homo sapiens, UniProt P08581); conditions: 10 μM; cited from earlier work
T20 construct: purchased Eurofins DiscoverX (KINOMEscan scanEDGE service)

ABL1-phosphorylated = molecular target: T21, ABL1-phosphorylated (Homo sapiens, UniProt P00519); conditions: 10 μM; cited from earlier work
T21 construct: purchased Eurofins DiscoverX

DYRK1B = molecular target: T22, DYRK1B (Homo sapiens, UniProt Q9Y463); conditions: 10 μM; cited from earlier work
T22 construct: purchased Eurofins DiscoverX

AXL = molecular target: T23, AXL (Homo sapiens, UniProt P30530); conditions: 10 μM; cited from earlier work
T23 construct: purchased Eurofins DiscoverX

CDK9 = molecular target: T24, CDK9 (Homo sapiens, UniProt P50750); conditions: 10 μM; cited from earlier work
T24 construct: purchased Eurofins DiscoverX

JNK2 = molecular target: T25, JNK2 (Homo sapiens, UniProt P45984); conditions: 10 μM; cited from earlier work
T25 construct: purchased Eurofins DiscoverX

PLK3 = molecular target: T26, PLK3 (Homo sapiens, UniProt Q9H4B4); conditions: 10 μM; cited from earlier work
T26 construct: purchased Eurofins DiscoverX KINOMEscan scanEDGE

PIM1 [5] = molecular target: T4, PIM1; conditions: 10 μM; cited from earlier work
ALK = molecular target: T27, ALK (Homo sapiens, UniProt Q9UM73); conditions: 10 μM; cited from earlier work
T27 construct: purchased Eurofins DiscoverX

[6] = molecular target: T28, JAK3(JH1domain-catalytic) (Homo sapiens, UniProt P52333); conditions: 10 μM; cited from earlier work
T28 construct: JAK3(JH1domain-catalytic); purchased Eurofins DiscoverX

MKNK2 = molecular target: T29, MKNK2 (Homo sapiens, UniProt Q9HBH9); conditions: 10 μM; cited from earlier work
T29 construct: purchased Eurofins DiscoverX (KINOMEscan scanEDGE service)

SNARK = molecular target: T30, SNARK (Homo sapiens, UniProt Q9H093); conditions: 10 μM; cited from earlier work
T30 construct: purchased Eurofins DiscoverX KINOMEscan scanEDGE

MLK1 = molecular target: T31, MLK1 (Homo sapiens, UniProt P80192); conditions: 10 μM; cited from earlier work
T31 construct: purchased Eurofins DiscoverX (KINOMEscan scanEDGE service)

PIM3 = molecular target: T32, PIM3 (Homo sapiens, UniProt Q86V86); conditions: 10 μM; cited from earlier work
T32 construct: purchased Eurofins DiscoverX (KINOMEscan scanEDGE service)

CDK2 = molecular target: T33, CDK2 (Homo sapiens, UniProt P24941); conditions: 10 μM; cited from earlier work
T33 construct: purchased Eurofins DiscoverX

ERK1 = molecular target: T34, ERK1 (Homo sapiens, UniProt P27361); conditions: 10 μM; cited from earlier work
T34 construct: purchased Eurofins DiscoverX

[7] = molecular target: T35, ABL1(E255K)-phosphorylated (Homo sapiens, UniProt P00519, E255K); conditions: 10 μM; cited from earlier work
T35 construct: purchased Eurofins DiscoverX

MAPKAPK2 = molecular target: T36, MAPKAPK2 (Homo sapiens, UniProt P49137); conditions: 10 μM; cited from earlier work
T36 construct: purchased Eurofins DiscoverX (KINOMEscan scanEDGE service)

T3 sequence (P36888 27-993): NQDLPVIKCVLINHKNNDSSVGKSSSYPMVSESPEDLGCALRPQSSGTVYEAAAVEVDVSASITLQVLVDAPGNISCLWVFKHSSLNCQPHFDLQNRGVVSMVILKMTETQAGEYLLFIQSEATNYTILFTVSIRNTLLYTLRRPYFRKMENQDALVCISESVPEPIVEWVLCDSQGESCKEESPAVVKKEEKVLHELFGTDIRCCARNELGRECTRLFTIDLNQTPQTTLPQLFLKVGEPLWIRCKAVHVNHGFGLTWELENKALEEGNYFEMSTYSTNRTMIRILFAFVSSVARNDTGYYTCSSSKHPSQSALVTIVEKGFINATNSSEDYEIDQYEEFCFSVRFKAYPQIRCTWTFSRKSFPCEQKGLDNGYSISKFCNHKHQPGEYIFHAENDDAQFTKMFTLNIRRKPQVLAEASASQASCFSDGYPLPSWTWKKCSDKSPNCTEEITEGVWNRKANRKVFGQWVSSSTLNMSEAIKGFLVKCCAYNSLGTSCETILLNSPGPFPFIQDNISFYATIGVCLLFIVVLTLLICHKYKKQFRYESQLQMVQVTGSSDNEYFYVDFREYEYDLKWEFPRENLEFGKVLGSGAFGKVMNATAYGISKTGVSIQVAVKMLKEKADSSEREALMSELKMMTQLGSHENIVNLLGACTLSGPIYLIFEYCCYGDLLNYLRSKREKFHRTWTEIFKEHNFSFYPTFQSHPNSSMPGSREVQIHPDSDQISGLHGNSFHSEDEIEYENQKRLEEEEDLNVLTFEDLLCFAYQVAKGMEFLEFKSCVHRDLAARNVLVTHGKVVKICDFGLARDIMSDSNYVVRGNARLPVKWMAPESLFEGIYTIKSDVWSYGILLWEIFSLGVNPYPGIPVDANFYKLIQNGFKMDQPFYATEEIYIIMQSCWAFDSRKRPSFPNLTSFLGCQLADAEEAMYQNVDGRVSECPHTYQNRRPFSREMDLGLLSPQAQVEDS
T4 sequence (P11309 whole entry): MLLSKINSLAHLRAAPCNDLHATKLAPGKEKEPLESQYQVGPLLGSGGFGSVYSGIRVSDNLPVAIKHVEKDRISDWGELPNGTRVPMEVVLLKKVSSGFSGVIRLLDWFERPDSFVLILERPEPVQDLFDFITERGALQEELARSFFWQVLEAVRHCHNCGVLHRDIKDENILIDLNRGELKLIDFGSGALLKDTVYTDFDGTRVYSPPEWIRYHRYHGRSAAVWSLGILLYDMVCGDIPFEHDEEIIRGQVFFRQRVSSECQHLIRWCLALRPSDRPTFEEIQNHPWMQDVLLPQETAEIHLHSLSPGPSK
T12 sequence (P16234 24-1089): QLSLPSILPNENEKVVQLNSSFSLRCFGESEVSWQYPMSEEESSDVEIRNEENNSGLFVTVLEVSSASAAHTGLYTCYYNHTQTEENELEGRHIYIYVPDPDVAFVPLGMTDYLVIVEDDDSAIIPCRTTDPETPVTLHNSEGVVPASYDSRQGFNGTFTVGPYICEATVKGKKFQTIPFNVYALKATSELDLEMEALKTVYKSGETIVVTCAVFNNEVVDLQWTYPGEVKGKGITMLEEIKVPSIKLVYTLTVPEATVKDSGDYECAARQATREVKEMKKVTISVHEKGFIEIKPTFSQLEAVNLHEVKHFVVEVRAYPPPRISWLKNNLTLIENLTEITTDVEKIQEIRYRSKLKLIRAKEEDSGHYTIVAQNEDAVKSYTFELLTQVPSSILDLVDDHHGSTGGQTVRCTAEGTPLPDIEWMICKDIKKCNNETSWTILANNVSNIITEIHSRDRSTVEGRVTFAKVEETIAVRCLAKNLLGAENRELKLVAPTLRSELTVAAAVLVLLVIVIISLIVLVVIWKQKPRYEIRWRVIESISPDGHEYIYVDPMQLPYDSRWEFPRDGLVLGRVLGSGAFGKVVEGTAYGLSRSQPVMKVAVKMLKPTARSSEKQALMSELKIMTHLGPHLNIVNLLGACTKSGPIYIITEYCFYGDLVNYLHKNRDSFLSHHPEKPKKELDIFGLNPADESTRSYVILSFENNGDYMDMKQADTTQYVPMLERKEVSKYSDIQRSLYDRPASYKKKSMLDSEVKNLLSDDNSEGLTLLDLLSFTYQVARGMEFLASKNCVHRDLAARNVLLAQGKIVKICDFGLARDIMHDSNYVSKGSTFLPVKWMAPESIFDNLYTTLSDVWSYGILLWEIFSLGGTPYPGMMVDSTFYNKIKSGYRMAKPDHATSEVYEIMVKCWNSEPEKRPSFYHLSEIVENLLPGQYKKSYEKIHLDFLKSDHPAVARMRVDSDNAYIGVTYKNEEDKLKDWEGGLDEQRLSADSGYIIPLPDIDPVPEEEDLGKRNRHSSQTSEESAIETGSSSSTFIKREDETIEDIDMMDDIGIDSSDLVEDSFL
T29 sequence (Q9HBH9 whole entry): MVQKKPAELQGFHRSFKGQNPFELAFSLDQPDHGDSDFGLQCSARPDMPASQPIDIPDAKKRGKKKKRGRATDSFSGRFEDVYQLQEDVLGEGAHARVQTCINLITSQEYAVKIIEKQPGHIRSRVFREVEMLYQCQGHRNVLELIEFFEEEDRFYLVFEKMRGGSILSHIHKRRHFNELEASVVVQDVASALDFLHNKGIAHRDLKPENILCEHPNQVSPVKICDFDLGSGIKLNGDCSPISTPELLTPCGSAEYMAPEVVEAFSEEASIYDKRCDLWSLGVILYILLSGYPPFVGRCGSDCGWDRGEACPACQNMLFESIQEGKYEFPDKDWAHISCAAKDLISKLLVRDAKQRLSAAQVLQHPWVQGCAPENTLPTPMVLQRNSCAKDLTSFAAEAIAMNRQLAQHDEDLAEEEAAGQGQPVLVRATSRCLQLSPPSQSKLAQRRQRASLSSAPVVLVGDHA
T17 sequence (Q15303 26-1308): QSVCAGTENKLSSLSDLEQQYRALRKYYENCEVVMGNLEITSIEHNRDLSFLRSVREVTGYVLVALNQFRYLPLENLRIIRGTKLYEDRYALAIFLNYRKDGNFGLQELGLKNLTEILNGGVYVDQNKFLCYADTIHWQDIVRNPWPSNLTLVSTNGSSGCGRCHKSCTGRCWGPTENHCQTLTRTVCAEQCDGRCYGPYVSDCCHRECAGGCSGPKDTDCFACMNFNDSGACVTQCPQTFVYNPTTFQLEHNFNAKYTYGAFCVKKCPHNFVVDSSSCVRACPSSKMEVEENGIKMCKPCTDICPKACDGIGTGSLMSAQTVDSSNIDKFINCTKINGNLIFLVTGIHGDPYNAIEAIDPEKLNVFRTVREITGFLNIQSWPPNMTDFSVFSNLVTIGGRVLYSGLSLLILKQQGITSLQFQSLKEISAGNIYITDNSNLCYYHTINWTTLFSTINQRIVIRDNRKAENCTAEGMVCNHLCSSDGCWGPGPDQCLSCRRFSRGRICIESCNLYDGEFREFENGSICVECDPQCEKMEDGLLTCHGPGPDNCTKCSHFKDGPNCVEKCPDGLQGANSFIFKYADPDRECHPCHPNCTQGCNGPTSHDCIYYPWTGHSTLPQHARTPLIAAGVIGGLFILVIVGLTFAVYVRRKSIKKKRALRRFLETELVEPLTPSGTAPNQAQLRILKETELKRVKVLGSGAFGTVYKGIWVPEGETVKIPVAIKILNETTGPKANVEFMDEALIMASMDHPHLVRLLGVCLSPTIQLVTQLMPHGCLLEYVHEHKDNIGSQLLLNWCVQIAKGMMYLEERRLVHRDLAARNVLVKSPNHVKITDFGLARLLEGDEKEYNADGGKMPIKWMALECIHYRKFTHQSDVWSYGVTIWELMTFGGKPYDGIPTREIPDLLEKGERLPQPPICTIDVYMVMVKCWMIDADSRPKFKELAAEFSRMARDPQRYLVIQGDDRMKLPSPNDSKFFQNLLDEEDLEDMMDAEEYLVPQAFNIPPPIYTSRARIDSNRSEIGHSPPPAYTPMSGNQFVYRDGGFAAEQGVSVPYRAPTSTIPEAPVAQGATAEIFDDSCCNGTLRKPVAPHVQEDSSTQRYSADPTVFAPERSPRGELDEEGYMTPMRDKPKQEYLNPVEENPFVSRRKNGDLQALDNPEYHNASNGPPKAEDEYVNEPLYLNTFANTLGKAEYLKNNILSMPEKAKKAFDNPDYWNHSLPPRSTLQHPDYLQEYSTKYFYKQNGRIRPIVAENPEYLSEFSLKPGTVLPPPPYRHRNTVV
T2 sequence (P15056 whole entry V600E): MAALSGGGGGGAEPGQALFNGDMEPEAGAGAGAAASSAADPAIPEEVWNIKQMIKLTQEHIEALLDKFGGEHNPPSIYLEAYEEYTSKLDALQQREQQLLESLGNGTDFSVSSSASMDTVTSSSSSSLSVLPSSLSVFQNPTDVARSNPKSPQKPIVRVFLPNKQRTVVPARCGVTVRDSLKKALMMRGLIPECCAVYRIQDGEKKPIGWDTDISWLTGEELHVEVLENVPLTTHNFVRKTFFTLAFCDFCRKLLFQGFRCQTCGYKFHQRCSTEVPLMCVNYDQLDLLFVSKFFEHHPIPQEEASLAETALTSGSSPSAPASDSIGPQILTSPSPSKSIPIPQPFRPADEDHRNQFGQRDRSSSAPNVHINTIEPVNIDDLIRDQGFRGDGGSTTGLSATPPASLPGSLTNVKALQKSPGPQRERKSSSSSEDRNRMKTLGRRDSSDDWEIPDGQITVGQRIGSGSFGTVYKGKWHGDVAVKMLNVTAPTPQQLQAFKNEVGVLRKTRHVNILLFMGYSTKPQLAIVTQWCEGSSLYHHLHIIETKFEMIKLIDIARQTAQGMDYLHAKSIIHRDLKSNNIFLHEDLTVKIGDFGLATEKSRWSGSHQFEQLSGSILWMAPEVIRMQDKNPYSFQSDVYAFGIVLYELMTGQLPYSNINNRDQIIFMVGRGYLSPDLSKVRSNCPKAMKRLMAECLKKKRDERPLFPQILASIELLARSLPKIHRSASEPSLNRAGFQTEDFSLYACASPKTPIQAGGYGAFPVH

COc1ccc2c3ccnc(C)c3n(CCN(C)C)c2c1.O=C(O)/C=C/C(=O)O [HTW_A_8 fumarate, 2-(7-methoxy-1-methyl-9H-pyrido[3,4-b]indol-9-yl)-N,N-dimethylethan-1-amine Fumarate Salt (2:3)]
remaining binding at 10 µM (MEK2): 82%
remaining binding at 10 µM (BRAF(V600E)): 100%
remaining binding at 10 µM (FLT3 [1]): 85%
remaining binding at 10 µM (PIM1 [2]): 94%
remaining binding at 10 µM (RIOK2): 83%
remaining binding at 10 µM (AURKB): 100%
remaining binding at 10 µM (AKT2): 100%
remaining binding at 10 µM (KIT): 100%
remaining binding at 10 µM (CDK11): 95%
remaining binding at 10 µM (CSF1R): 98%
remaining binding at 10 µM [3]: 97%
remaining binding at 10 µM (PDGFRA): 100%

COc1ccc2c(c1)[nH]c1c(C)nccc12 [Harmine, harmine]
Percent Control (IKK-beta): 95%
Percent Control (SRC): 90%
Percent Control (TRKA): 100%
Percent Control (AKT1): 96%
Percent Control (ERBB4): 83%
Percent Control (IGF1R): 100%
Percent Control (FLT3 [4]): 85%
Percent Control (ULK2): 89%
Percent Control (MET): 100%
Percent Control (ABL1-phosphorylated): 100%
Percent Control (DYRK1B): 6.1%
Percent Control (AXL): 82%
Percent Control (CDK9): 67%
Percent Control (JNK2): 58%
Percent Control (PLK3): 75%
Percent Control (PIM1 [5]): 45%
Percent Control (ALK): 92%
Percent Control [6]: 61%
Percent Control (MKNK2): 22%
Percent Control (SNARK): 95%
Percent Control (MLK1): 100%
Percent Control (PIM3): 43%
Percent Control (CDK2): 98%
Percent Control (ERK1): 99%
Percent Control [7]: 74%
Percent Control (MAPKAPK2): 72%
